IC50 data for 2 compounds are collected here from ChEMBL document CHEMBL1201862, “PubChem BioAssay data set” (2004).

Calls of active or inactive are those of the source. No stated cut-off is given here; in the data, actives have a measured IC50 and inactives only a lower limit.

The target of this assay is Envelope glycoprotein gp160 (Human immunodeficiency virus 1, UniProt Q6QLK5). Put plainly: inhibitors of HIV fusion peptide binding, primary screen, biochemical, uHTS, fluorescence dequenching (AID 1986).
Envelope glycoprotein gp160, sequence (Q6QLK5 whole entry, the tested form may be a part): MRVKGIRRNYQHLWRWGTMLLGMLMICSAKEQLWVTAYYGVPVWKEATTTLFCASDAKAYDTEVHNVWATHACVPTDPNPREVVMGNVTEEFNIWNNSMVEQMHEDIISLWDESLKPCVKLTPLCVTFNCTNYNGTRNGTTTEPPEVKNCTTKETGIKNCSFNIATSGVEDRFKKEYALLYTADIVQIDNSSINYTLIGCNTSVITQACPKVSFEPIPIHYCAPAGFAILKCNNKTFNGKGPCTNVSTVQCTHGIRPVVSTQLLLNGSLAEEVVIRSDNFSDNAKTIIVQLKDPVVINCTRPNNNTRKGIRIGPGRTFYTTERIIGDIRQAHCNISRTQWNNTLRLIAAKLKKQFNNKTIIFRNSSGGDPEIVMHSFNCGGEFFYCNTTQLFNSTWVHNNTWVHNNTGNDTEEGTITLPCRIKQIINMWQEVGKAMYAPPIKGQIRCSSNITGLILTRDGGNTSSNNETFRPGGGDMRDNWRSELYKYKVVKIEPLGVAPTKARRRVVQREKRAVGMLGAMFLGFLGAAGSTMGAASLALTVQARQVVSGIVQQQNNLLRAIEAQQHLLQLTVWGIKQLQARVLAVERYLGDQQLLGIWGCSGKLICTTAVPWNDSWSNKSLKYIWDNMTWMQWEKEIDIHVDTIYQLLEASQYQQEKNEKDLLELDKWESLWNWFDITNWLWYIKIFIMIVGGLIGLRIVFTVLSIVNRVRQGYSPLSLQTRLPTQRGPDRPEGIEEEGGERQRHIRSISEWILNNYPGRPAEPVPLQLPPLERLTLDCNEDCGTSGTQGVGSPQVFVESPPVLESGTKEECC

For `O=C(O)CCn1cc(/C=C/C(=O)c2ccc(Cl)cc2)c(-c2cccc(Br)c2)n1`, the half-maximal inhibitory concentration (IC50) (as a rule, the concentration that gives 50% inhibition) is 28 µM (active). The result for `COc1cc(/C=C2\SC(NS(=O)(=O)c3ccc(C)cc3)=NC2=O)c([N+](=O)[O-])cc1OC` reads 17.1 µM (active).
